Test results as given in PMC12649225, “Machine Learning-Identified Potent Antimicrobial Peptides Against Multidrug-Resistant Bacteria and Skin Infections” (Antibiotics, 2025).
Residues, ends and D or L forms follow the SMILES beside them.

Tests used:
MDR ESKAPE pathogens = assay: Bactericidal activity (LC99.9), statements for the whole panel; format: cell-based; details: for Concentrations required for E. cloacae, S. aureus and P. aeruginosa in 50% plasma within 2 h: range over the three species; for Concentrations killing ESKAPE pathogens in 50% plasma within 2 h / Concentrations killing ESKAPE pathogens in 50% plasma after 18 h / Concentrations killing ESKAPE pathogens in RPMI within 2 h: range over species
Protocol: The bacterial strains used in this study included S. aureus JAR060131 [54] and the MDR ESKAPE pathogens Enterococcus faecium LUH15122, S. aureus LUH14616, Klebsiella pneumoniae LUH15104, A. baumannii RUH875 [55], Pseudomonas aeruginosa LUH15103, Enterobacter cloacae LUH15114, and the colistin-resistant Escherichia coli LUH15117. Before each experiment, bacteria from frozen stocks were cultured at 37 °C for 18–24 h on sheep blood agar plates (BioMérieux, Marcy-l’Étoile, France). All strains were then cultured from colonies either in tryptic soy broth (TSB; Oxoid, Basingstoke, UK) for A. baumannii, S. aureus, and E. faecium, or in brain heart infusion broth (BHI; Oxoid) for K. pneumoniae, P. aeruginosa, E. cloacae, and E. coli at 37 °C with shaking at 120 rpm for 18–24 h. Subsequently, bacteria were cultured to mid-logarithmic phase in the media described above at 37 °C with shaking at 120 rpm for 3 h. Bacteria were then washed twice with PBS and diluted to the required inoculum suspension concentration in Roswell Park Memorial Institute (RPMI)-1640 medium containing 20 mM HEPES and L-glutamine but without sodium bicarbonate (Sigma-Aldrich; hereafter referred to as RPMI), based on optical density at 620 nm. RPMI was selected because it supports bacterial growth without impairing AMP activity.
Bactericidal activity was assessed as described by de Breij et al.. Briefly, mid-logarithmic phase bacterial cultures were diluted to a final concentration of 1 × 10^7 colony-forming units (CFU)/mL in RPMI. Then, 10 µL was added to a final volume of 100 µL in RPMI (final concentration: 1 × 10^6 CFU/mL). Cultures were exposed to peptides either in RPMI or RPMI supplemented with 50% (v/v) human plasma (hereafter referred to as 50% plasma), obtained from four healthy volunteers after informed consent, frozen after collection, and pooled (Sanquin, Amsterdam, The Netherlands). Assays were performed in duplicate using round-bottom polypropylene microtiter plates (Costar, Arlington, VA, USA) and repeated three times. In the initial screening phase (Table 1, Table 2 and Table S1), peptide solutions of 1, 10, and 100 μM (final concentration) were tested against A. baumannii RUH875 and S. aureus JAR060131 in RPMI and in 50% plasma. After this selection process, two lead candidates, their RI variants, and reference peptides were tested with a final concentration range of 0.12 to 120 µM (two-fold dilutions) in RPMI and in 50% plasma (Table 3). The peptides were also tested against ESKAPE pathogens, with Synthetic Antimicrobial and Antibiofilm Peptide (SAAP)-148 as a reference peptide (Table 4).RPMI or 50% plasma served as no-treatment controls. After 2 and 18 h of incubation at 37 °C with shaking at 120 rpm in a humidified environment, the numbers of viable bacteria were quantified. Bactericidal activity was expressed as the lethal concentration 99.9% (LC99.9), defined as the lowest peptide concentration that killed ≥99.9% of bacteria within 2 h (LC99.9_2h) or 18 h (LC99.9_18h) compared to the initial inoculum.

S. aureus JAR060131 = assay: microbe, parasite or virus in culture; format: cell-based, Staphylococcus aureus; details: RPMI, 18 h
Protocol: (§1) The potential for resistance development to GDST-038, GDST-045, and their RI variants was assessed as described by Habets and Brockhurst. Resistance development to the antibiotics rifampicin and ciprofloxacin (both from Sigma-Aldrich) was evaluated for comparison. Briefly, 10 μL of a mid-logarithmic phase culture of A. baumannii RUH875 or S. aureus JAR060131 was added to 90 μL of peptide (final concentrations: 0.23 to 120 μM) or antibiotic (final concentrations: 0.03 to 256 μg/mL) solution in RPMI, in 96-well polypropylene round-bottom plates (Costar). All incubations were performed in quadruplicate. Plates were sealed with breathable seals (Greiner) and incubated at 37 °C with shaking at 120 rpm in a humidified environment for 18 h (S. aureus) or 48 h (A. baumannii).
(§2) The minimum inhibitory concentration (MIC), defined as the lowest concentration that inhibited visible bacterial growth, was then determined. Subsequently, 2 μL from the 0.5-fold MIC condition was transferred to fresh medium containing a concentration series ranging from 0.5- to 8-fold the new MIC. This procedure was repeated over 22 consecutive passages to monitor resistance development.

A. baumannii RUH875 = assay: microbe, parasite or virus in culture; format: cell-based, Acinetobacter baumannii; details: RPMI, 48 h
Protocol: as §1, §2

Row | Compound | Concentrations required for E. cloacae, S. aureus and P. aeruginosa in 50% plasma within 2 h (MDR ESKAPE pathogens) [µM] | Concentrations killing ESKAPE pathogens in 50% plasma within 2 h (MDR ESKAPE pathogens) [µM] | Concentrations killing ESKAPE pathogens in 50% plasma after 18 h (MDR ESKAPE pathogens; 18 h) [µM] | Concentrations killing ESKAPE pathogens in RPMI within 2 h (MDR ESKAPE pathogens) [µM] | also measured
1 | CC[C@@H](C)[C@@H](NC(=O)[C@@H](C)NC(=O)[C@@H](CCCCN)NC(=O)[C@@H](CCCCN)NC(=O)[C@@H](Cc1c[nH]c2ccccc12)NC(=O)[C@@H](Cc1c[nH]c2ccccc12)NC(=O)[C@@H](CCCNC(=N)N)NC(=O)[C@@H](CC(C)C)NC(=O)[C@@H](CC(C)C)NC(C)=O)C(=O)N[C@H](CCCCN)C(=O)N[C@@H](C(=O)N[C@H](Cc1c[nH]c2ccccc12)C(=O)N[C@H](CCCNC(=N)N)C(=O)N[C@H](CCCCN)C(N)=O)C(C)C [GDST-038-RI] (HELM PEPTIDE1{[ac].[dL].[dL].[dR].[dW].[dW].[dK].[dK].[dA].[dI].[dK].[dV].[dW].[dR].[dK].[am]}$$$$V2.0; N-terminus and C-terminus assumed) | 30 to 60 | – | – | – | –
2 | CC[C@@H](C)[C@@H](NC(=O)[C@@H](CC(C)C)NC(=O)[C@@H](CCCCN)NC(=O)[C@@H](CCCCN)NC(=O)[C@H](NC(=O)[C@@H](Cc1c[nH]c2ccccc12)NC(=O)[C@@H](CCCNC(=N)N)NC(=O)[C@@H](Cc1ccccc1)NC(=O)[C@@H](CC(C)C)NC(C)=O)C(C)C)C(=O)N[C@H](CCCCN)C(=O)N[C@@H](C(=O)N[C@H](Cc1c[nH]c2ccccc12)C(=O)N[C@H](CCCNC(=N)N)C(=O)N[C@H](CCCCN)C(N)=O)C(C)C [GDST-045-RI] (HELM PEPTIDE1{[ac].[dL].[dF].[dR].[dW].[dV].[dK].[dK].[dL].[dI].[dK].[dV].[dW].[dR].[dK].[am]}$$$$V2.0; N-terminus and C-terminus assumed) | – | 0.94 to 120 | 0.94 to 30 | 0.94 to 15 | –
3 | Ac-KRWVKIAKKWWRLL-NH2 [GDST-038] | 30 to 60 | – | – | – | MIC S. aureus at the 22nd passage (S. aureus JAR060131): 1.88 µM; MIC S. aureus at the 1st passage (S. aureus JAR060131; median of four replicates): 0.94 µM; MIC A. baumannii, stable over 22 passages (A. baumannii RUH875): 0.47 µM
4 | Ac-KRWVKILKKVWRFL-NH2 [GDST-045] | – | 0.94 to 120 | 0.94 to 30 | 0.94 to 15 | MIC S. aureus, constant throughout all passages (S. aureus JAR060131; 22 passages): 0.47 µM; MIC A. baumannii at passage 16 (peak) (A. baumannii RUH875): 7.50 µM; MIC A. baumannii at the 1st passage (A. baumannii RUH875; median of four replicates): 0.94 µM; MIC A. baumannii at the 22nd passage (A. baumannii RUH875; serial passage at sub-inhibitory concentrations): 0.47 µM
5 | Ac-LKRVWKRVFKLLKRYWRQLKKPVR-NH2 (N-terminus and C-terminus assumed) [SAAP-148, reference compound] | – | – | – | – | Reduction in activity in plasma after 18 h (MDR ESKAPE pathogens; 50% plasma vs RPMI, 18 h, except E. cloacae, A. baumannii, K. pneumoniae): 8 to 16 fold
